Data: patent US9493455B2, “Azaindole derivatives as inhibitors of protein kinases” (ORIBASE PHARMA, priority 2012, dated 2016)

Tests used:
ABL = target: T1, ABL (Homo sapiens, UniProt P00519); experiment: In vitro kinase assay (Z′-LYTE); format: biochemical; conditions: read-out: % of inhibition of the kinase compared to the control
T1 construct: purchased Invitrogen

ABL T315I = target: T2, ABL T315I (Homo sapiens, UniProt P00519, T315I); experiment: In vitro kinase assay (Z′-LYTE); format: biochemical; conditions: read-out: % of inhibition of the kinase compared to the control
T2 construct: purchased Invitrogen
Procedure, shortened: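 Single-point inhibition at 100 nM per compound (10 μM for ABL T315I), 1% DMSO final. Kinase buffer: 50 mM HEPES pH 7.5, 0.01% BRIJ-35, 10 mM MgCl2, 1 mM EGTA; ATP at previously determined apparent Km. Readout by FRET emission ratio (Z′-LYTE).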

BRAF = target: T3, BRAF (Homo sapiens, UniProt P15056); experiment: In vitro kinase assay (Z′-LYTE); format: biochemical; conditions: compound 100 nM; ATP 100 μM; read-out: % of inhibition of the kinase compared to the control
T3 construct: purchased Invitrogen
Procedure, shortened: (§1)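 Z′-LYTE FRET peptide-cleavage assay, emission ratio after 400 nm excitation; compound tested at 100 nM in 1% DMSO final. Kinase buffer 50 mM HEPES pH 7.5, 0.01% BRIJ-35, 10 mM MgCl2, 1 mM EGTA, ATP at previously determined apparent Km; read as percent inhibition.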

EGFR (ErbB1) = target: T4, EGFR (ErbB1) (Homo sapiens, UniProt P00533); experiment: In vitro kinase assay (Z′-LYTE); format: biochemical; conditions: read-out: % of inhibition of the kinase compared to the control
T4 construct: purchased Invitrogen
Procedure, shortened: as §1

EGFR (ErbB1) T790M L858R = target: T5, EGFR (ErbB1) T790M L858R (Homo sapiens, UniProt P00533, L858R/T790M); experiment: In vitro kinase assay (Z′-LYTE); format: biochemical; conditions: read-out: % of inhibition of the kinase compared to the control
T5 construct: purchased Invitrogen
T5 sequence (P00533 25-1210 T790M/L858R): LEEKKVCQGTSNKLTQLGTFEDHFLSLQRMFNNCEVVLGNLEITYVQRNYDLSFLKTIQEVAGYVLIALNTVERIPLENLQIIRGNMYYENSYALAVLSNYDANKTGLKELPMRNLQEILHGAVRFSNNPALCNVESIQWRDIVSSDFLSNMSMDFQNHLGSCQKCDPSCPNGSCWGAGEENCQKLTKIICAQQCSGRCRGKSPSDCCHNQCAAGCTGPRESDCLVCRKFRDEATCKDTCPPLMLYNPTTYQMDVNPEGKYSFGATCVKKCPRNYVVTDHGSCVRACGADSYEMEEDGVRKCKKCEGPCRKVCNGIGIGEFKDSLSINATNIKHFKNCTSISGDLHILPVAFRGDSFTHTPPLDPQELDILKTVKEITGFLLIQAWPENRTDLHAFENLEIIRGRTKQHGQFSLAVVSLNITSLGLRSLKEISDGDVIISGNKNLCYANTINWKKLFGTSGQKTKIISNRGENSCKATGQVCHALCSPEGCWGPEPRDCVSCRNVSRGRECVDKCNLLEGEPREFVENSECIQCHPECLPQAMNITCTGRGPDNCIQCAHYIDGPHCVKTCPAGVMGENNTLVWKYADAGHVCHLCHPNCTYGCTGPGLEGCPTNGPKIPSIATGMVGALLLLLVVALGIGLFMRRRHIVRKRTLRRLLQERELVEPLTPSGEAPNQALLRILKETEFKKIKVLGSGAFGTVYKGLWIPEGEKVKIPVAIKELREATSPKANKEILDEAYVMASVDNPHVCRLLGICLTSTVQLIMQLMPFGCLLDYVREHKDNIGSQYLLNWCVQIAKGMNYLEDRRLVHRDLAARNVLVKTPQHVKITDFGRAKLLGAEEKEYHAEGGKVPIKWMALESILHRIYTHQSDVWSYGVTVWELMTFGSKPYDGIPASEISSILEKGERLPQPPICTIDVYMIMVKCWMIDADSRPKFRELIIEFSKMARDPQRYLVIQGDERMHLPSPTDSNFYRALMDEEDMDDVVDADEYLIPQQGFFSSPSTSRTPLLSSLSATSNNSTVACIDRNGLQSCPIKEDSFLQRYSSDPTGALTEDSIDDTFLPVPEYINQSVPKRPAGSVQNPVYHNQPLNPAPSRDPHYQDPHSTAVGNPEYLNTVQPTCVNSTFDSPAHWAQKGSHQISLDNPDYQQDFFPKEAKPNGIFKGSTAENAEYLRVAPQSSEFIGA
Procedure, shortened: as §1

FGFR1 = target: T6, FGFR1 (Homo sapiens, UniProt P11362); experiment: In vitro kinase assay (Z′-LYTE); format: biochemical; conditions: read-out: % of inhibition of the kinase compared to the control
T6 construct: purchased Invitrogen
Procedure, shortened: as §1

FGFR2 = target: T7, FGFR2 (Homo sapiens, UniProt P21802); experiment: In vitro kinase assay (Z′-LYTE); format: biochemical; conditions: read-out: % of inhibition of the kinase compared to the control
T7 construct: purchased Invitrogen
T7 sequence (P21802 22-821): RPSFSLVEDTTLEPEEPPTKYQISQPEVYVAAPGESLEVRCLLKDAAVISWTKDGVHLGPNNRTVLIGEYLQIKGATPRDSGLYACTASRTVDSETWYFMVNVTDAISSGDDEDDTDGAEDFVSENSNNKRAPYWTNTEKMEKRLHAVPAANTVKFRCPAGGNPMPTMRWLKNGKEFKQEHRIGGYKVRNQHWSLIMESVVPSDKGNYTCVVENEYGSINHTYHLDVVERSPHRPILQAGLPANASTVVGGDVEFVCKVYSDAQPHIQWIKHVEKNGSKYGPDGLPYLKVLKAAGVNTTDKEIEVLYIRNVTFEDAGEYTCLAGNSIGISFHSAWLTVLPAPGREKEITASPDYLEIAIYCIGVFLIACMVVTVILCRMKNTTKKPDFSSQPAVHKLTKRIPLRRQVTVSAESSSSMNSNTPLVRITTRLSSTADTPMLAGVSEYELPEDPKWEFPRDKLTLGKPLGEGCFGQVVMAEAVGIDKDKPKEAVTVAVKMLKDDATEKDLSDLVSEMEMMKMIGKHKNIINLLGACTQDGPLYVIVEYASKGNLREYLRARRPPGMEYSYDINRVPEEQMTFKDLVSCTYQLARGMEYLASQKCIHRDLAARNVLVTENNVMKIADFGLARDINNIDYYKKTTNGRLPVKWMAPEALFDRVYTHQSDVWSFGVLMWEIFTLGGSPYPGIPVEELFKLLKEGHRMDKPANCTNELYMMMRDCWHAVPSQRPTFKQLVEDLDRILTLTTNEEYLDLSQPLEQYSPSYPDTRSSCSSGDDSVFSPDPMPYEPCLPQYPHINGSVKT
Procedure, shortened: as §1

KDR (VEGFR2) = target: T8, KDR (VEGFR2) (Homo sapiens, UniProt P35968); experiment: In vitro kinase assay (Z′-LYTE); format: biochemical; conditions: read-out: % of inhibition of the kinase compared to the control
T8 construct: purchased Invitrogen
T8 sequence (P35968 20-1356): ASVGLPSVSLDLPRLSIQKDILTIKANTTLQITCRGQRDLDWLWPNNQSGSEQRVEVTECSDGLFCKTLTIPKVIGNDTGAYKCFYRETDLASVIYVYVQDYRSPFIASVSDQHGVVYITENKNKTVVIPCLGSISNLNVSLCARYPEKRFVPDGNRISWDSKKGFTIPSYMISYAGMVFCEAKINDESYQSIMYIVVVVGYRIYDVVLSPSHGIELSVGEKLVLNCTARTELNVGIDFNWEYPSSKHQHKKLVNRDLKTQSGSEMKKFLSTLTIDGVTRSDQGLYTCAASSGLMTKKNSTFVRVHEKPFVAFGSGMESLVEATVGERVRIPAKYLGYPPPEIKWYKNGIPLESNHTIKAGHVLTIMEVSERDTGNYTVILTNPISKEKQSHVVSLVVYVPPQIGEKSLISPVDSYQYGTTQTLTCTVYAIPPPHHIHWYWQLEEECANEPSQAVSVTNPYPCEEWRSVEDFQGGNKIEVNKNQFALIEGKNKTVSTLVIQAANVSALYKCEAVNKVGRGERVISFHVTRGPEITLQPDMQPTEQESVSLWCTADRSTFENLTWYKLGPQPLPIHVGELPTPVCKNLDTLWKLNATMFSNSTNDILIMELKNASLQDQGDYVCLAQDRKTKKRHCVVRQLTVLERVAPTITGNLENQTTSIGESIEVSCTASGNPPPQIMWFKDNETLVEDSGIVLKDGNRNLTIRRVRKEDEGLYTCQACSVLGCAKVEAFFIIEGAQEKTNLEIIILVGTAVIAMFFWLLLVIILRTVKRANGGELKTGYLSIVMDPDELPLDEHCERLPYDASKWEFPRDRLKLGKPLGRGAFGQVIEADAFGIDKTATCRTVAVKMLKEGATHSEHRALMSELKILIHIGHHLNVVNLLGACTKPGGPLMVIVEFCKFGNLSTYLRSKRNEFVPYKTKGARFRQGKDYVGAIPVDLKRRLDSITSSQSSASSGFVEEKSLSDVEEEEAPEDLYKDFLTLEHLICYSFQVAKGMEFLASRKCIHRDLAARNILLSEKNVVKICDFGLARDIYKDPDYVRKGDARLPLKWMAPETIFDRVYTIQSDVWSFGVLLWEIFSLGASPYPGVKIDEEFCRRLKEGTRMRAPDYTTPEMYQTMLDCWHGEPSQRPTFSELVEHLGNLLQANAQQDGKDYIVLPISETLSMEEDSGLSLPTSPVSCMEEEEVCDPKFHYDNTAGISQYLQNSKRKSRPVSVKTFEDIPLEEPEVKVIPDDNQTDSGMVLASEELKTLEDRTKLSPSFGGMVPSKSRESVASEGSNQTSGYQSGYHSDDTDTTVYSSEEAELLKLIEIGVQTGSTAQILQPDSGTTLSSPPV
Procedure, shortened: as §1

PDGFRA (PDGFR alpha) = target: T9, PDGFRA (PDGFR alpha) (Homo sapiens, UniProt P16234); experiment: In vitro kinase assay (Z′-LYTE); format: biochemical; conditions: read-out: % of inhibition of the kinase compared to the control
T9 construct: purchased Invitrogen
Procedure, shortened: as §1

PDGFRB = target: T10, PDGFRB (Homo sapiens, UniProt P09619); experiment: In vitro kinase assay (Z′-LYTE); format: biochemical; conditions: read-out: % of inhibition of the kinase compared to the control
T10 construct: purchased Invitrogen
Procedure, shortened: as §1

SRC = target: T11, SRC (Homo sapiens, UniProt P12931); experiment: In vitro kinase assay (Z′-LYTE); format: biochemical; conditions: read-out: % of inhibition of the kinase compared to the control
T11 construct: purchased Invitrogen
Procedure, shortened: as §1

VEGFR1 = target: T12, VEGFR1 (Homo sapiens, UniProt P17948); experiment: In vitro kinase assay (Z′-LYTE); format: biochemical; conditions: read-out: % of inhibition of the kinase compared to the control
T12 construct: purchased Invitrogen
T12 sequence (P17948 27-1338): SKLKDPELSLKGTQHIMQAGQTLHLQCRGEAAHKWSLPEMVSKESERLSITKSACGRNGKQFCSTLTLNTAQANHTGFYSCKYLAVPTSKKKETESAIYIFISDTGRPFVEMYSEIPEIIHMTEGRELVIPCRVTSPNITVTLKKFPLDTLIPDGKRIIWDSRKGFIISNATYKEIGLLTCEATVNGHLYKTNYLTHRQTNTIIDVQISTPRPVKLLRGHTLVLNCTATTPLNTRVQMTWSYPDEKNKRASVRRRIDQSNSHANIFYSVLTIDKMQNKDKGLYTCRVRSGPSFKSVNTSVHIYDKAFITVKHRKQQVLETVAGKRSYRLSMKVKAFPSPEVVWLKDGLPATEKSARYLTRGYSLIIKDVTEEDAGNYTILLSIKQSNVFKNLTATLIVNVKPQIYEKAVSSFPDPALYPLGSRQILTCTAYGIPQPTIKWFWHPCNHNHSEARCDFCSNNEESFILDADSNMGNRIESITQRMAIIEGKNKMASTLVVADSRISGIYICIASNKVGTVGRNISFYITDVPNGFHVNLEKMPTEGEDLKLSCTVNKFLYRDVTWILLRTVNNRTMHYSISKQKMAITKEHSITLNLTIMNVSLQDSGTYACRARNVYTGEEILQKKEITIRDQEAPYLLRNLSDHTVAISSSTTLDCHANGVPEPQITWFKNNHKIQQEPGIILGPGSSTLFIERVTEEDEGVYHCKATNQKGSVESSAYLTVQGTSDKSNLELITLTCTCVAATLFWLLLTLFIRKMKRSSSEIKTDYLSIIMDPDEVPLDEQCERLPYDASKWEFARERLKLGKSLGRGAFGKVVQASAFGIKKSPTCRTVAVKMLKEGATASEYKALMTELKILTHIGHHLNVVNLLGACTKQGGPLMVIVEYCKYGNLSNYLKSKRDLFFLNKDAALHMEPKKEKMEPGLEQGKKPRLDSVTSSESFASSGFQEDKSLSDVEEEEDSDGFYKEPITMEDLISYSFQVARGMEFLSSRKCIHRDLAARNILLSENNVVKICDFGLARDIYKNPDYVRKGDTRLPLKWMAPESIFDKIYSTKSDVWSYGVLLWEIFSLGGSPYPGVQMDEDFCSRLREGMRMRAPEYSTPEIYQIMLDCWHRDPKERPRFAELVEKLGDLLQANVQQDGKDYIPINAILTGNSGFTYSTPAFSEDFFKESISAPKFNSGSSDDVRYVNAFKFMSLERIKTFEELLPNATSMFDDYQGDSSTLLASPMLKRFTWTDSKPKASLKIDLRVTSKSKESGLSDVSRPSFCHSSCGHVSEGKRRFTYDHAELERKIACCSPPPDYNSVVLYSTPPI
Procedure, shortened: as §1

A549 = experiment: In vitro cell proliferation assay (MTT); format: cell-based; conditions: Homo sapiens, A549, 72 h
Procedure, shortened: (§2)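 Seed 5×10^3 cells per well. Add compound at rising doses (10 nM to 3 μM), run in duplicate. Incubate 72 hr, then quantify growth with MTT.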

BxPC-3 = experiment: In vitro cell proliferation assay (MTT); format: cell-based; conditions: Homo sapiens, BXPC-3, 72 h
Procedure, shortened: as §2

H1975 = experiment: In vitro cell proliferation assay (MTT); format: cell-based; conditions: Homo sapiens, NCI-H1975, 72 h
Procedure, shortened: as §2

HT29 = experiment: In vitro cell proliferation assay (MTT); format: cell-based; conditions: Homo sapiens, HT-29, 72 h
Procedure, shortened: as §2

HUVEC = experiment: In vitro cell proliferation assay (MTT); format: cell-based; conditions: Homo sapiens, 72 h
Experimental: Cancer cell lines (5×10^3 cells per well) or HUVEC (1×10^4 cells per well) or HRMEC (1×10^4 cells per well) were distributed in 96-well plates and incubating in duplicate with escalating concentrations (10 nM to 3 μM) of compounds for 72 hr. Cell proliferation was measured using MTT (3 [4,5-dimethylthiazol-2-yl]-2,5-diphenyltetrazolium bromide).

HepG2 = experiment: In vitro cell proliferation assay (MTT); format: cell-based; conditions: Homo sapiens, HepG2, 72 h
Procedure, shortened: as §2

HuCCT1 = experiment: In vitro cell proliferation assay (MTT); format: cell-based; conditions: Homo sapiens, HuCCT-1, 72 h
Procedure, shortened: as §2

MDA-MB-231 = experiment: In vitro cell proliferation assay (MTT); format: cell-based; conditions: Homo sapiens, MDA-MB-231, 72 h
Procedure, shortened: as §2

PC-3 = experiment: In vitro cell proliferation assay (MTT); format: cell-based; conditions: Homo sapiens, PC-3, 72 h
Procedure, shortened: as §2

HeLa = experiment: In vitro cell proliferation assay (MTT); format: cell-based; conditions: Homo sapiens, 72 h
Procedure, shortened: as §2

HRMEC = experiment: In vitro cell proliferation assay (MTT); format: cell-based; conditions: 72 h
Procedure, shortened: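 MTT read-out of proliferation after 72 hr compound exposure; 5×10^3 cells/well, duplicate wells, dose range 10 nM–3 μM.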

HuH6 Clone 5 = experiment: In vitro cell proliferation assay (MTT); format: cell-based; conditions: HUH-6-clone5, 72 h
Procedure, shortened: as §2

HuH7 = experiment: In vitro cell proliferation assay (MTT); format: cell-based; conditions: Homo sapiens, Huh-7, 72 h
Procedure, shortened: as §2

| inhibition at 10 µM (ABL) | inhibition at 10 µM (ABL T315I) | inhibition at 0.1 µM (BRAF) | inhibition at 0.1 µM (EGFR (ErbB1)) | inhibition at 0.1 µM (EGFR (ErbB1) T790M L858R) | inhibition at 0.1 µM (FGFR1) | inhibition at 0.1 µM (FGFR2) | inhibition at 0.1 µM (KDR (VEGFR2)) | inhibition at 0.1 µM (PDGFRA (PDGFR alpha)) | inhibition at 0.1 µM (PDGFRB) | inhibition at 0.1 µM (SRC) | inhibition at 0.1 µM (VEGFR1) | EC50 (A549) | EC50 (BxPC-3) | EC50 (H1975) | EC50 (HT29) | EC50 (HepG2) | EC50 (MDA-MB-231) | EC50 (PC-3) | Compound | EC50 (HUVEC) | further results |
| --- | --- | --- | --- | --- | --- | --- | --- | --- | --- | --- | --- | --- | --- | --- | --- | --- | --- | --- | --- | --- | --- |
| ≥ 50% | < 50% | < 50% | ≥ 50% | < 50% | < 50% | < 50% | < 50% | ≥ 50% | < 50% | ≥ 50% | < 50% | 100 to 1000 nM | 100 to 1000 nM | ≥ 1000 nM | 100 to 1000 nM | 100 to 1000 nM | 100 to 1000 nM | ≥ 1000 nM | COC(=O)c1cc2cc(NCc3cc(NC(=O)c4ccc(CN5CCC(O)CC5)c(C(F)(F)F)c4)ccc3C)cnc2[nH]1 [OR0636] | 100 to 1000 nM | EC50 (HuCCT1): ≥ 1000 nM |
| ≥ 50% | ≥ 50% | < 50% | < 50% | < 50% | < 50% | < 50% | < 50% | ≥ 50% | < 50% | ≥ 50% | < 50% | 100 to 1000 nM | ≤ 100 nM | 100 to 1000 nM | 100 to 1000 nM | ≤ 100 nM | ≤ 100 nM | ≥ 1000 nM | COC(=O)c1cc2cc(NCc3cc(NC(=O)c4cccc(OC(F)(F)F)c4)ccc3C)cnc2[nH]1 [OR0611] | 100 to 1000 nM | EC50 (HeLa): ≥ 1000 nM |
| ≥ 50% | ≥ 50% | < 50% | ≥ 50% | < 50% | < 50% | < 50% | < 50% | ≥ 50% | < 50% | ≥ 50% | < 50% | 100 to 1000 nM | 100 to 1000 nM | 100 to 1000 nM | 100 to 1000 nM | ≤ 100 nM | ≤ 100 nM | ≥ 1000 nM | COC(=O)c1cc2cc(NCc3cc(NC(=O)c4cccc(C(F)(F)F)c4)ccc3C)cnc2[nH]1 [OR0606] | ≤ 100 nM | EC50 (HeLa): ≥ 1000 nM |
| ≥ 50% | < 50% | ≥ 50% | < 50% | < 50% | < 50% | < 50% | < 50% | ≥ 50% | ≥ 50% | < 50% | < 50% | ≥ 1000 nM | ≥ 1000 nM | ≥ 1000 nM | ≥ 1000 nM | ≥ 1000 nM |  |  | COC(=O)c1cc2cc(NCc3cc(NC(=O)c4ccc5[nH]nnc5c4)ccc3C)cnc2[nH]1 [OR0616] | ≥ 1000 nM | EC50 (HRMEC): ≥ 1000 nM |
| ≥ 50% | ≥ 50% | ≥ 50% | ≥ 50% | ≥ 50% | ≥ 50% | ≥ 50% | ≥ 50% | ≥ 50% | < 50% | ≥ 50% | < 50% | 100 to 1000 nM | 100 to 1000 nM | 100 to 1000 nM | ≤ 100 nM | ≤ 100 nM | ≤ 100 nM | ≥ 1000 nM | COC(=O)c1cc2cc(NCc3cc(NC(=O)c4ccc(CN5CCNCC5)c(C(F)(F)F)c4)ccc3C)cnc2[nH]1 [OR0613] | ≤ 100 nM | EC50 (HuCCT1): ≥ 1000 nM; EC50 (HuH6 Clone 5): ≥ 1000 nM; EC50 (HuH7): 100 to 1000 nM |
|  |  | ≥ 50% | < 50% | < 50% |  | < 50% | < 50% | ≥ 50% |  | ≥ 50% |  | 100 to 1000 nM |  | ≥ 1000 nM | 100 to 1000 nM | 100 to 1000 nM | 100 to 1000 nM |  | COC(=O)c1cc2cc(NC(=O)c3cc(NC(=O)c4cncc(C(F)(F)F)c4)ccc3C)cnc2[nH]1 [OR0745] | 100 to 1000 nM | EC50 (HeLa): ≥ 1000 nM; EC50 (HuCCT1): ≥ 1000 nM; EC50 (HuH6 Clone 5): ≥ 1000 nM; EC50 (HuH7): 100 to 1000 nM |
